Earlier results on two substances are cited in patent US10300017B2, “Method and composition for treating cystitis” (Nanologix Research, Inc., priority 2012, dated 2019).

One data set concerns interstitial cystitis. Conditions: 20 patients heparin 40,000 units, 20 patients 100 mg Elmiron, 80 mg lidocaine, 3 cc sodium bicarb.
The conditions of data set [1]: oral.

For heparin, the “response to therapy (symptom relief), comparison of the two intravesical solutions” value in the data set with interstitial cystitis was “no significant difference between the two solutions”.

On to pentosan polysulfate [Elmiron®], for which the “response to therapy (symptom relief), comparison of the two intravesical solutions” value in the data set on interstitial cystitis is listed as “no significant difference between the two solutions”. The “fraction absorbed that reaches the circulation” value (administered orally) was 6%. Moreover, the “fraction of the administered dose recovered as intact drug in urine (mean)” value (oral dose) is listed as 0.14%. The “mean of an oral dose excreted in the urine” value (oral dose, mostly as desulfated and depolymerized metabolites) is given as 6%. The systemic side effects result in data set [1] was “hair loss, GI intolerance, headache, rash, sleep disturbance, and vertigo”.
